A short description of data set [1]: in vitro. Particulars: human.
Data set [2] addresses T1, human cathepsin L (Homo sapiens, UniProt P07711).
T1 construct: purchased R&D Systems
Description: cathepsin L assay. It is filed as biochemical. The following applies: 10 pM human cathepsin L, Z-FR-AMC 2 μM, class symbols. The essentials: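 Reactions began by adding 2 μM (final) Z-FR-AMC substrate to 10 pM human cathepsin L that had been preincubated 30 min with inhibitor. Kinetic AMC fluorescence at 355/460 nm over 30 min at 2-min intervals; four-parameter fitting gave IC50 values.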

Data set [3] has as its system SARS-CoV-2-GHB-03021/2020. Description: SARS-CoV-2 Infection Model in Huh7 Cells. It is filed as cell-based. Particulars: Severe acute respiratory syndrome coronavirus 2, Huh-7, 96 h, SARS-CoV-2, day 4 p.i., MTS.
For data set [4], the target named is HRV3C (Human rhinovirus 14, UniProt P03303). Briefly: HRV3C protease assay (duplex, SAMDI-MS). Particulars: HRV3C, 30 mins preincubation, read-out: HRV IC50. It is filed as biochemical, HRV. The essentials: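 HRV3C was preincubated 30 min with compound alongside 3CLpro at ambient temperature, then two biotinylated peptide substrates were added for 30 min. Quenching used 0.5% formic acid (final). Cleaved product was captured on neutravidin SAMDI arrays and quantified by MALDI-TOF as product/internal-standard AUC ratio; IC50 from four-parameter fit.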

A short description of data set [5]: in vitro. Particulars: African green monkey, VeroE6 + CP (CC50), Vero E6-eGFP cells with CP-100356, absence of virus, MTS.
Data set [6] in a line: Cytotoxicity plates without OC43 virus (cell-titer-glo). The following applies: human; HeLa cells without OC43 virus, class symbols. It is filed as cell-based, human. The essentials: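 Run as a virus-free counterpart of the OC43 cytopathic-effect assay. Attached HeLa cells received compound dilutions in EMEM with 2% FBS and were kept 6 days at 33 °C. Cell viability was then measured by CellTiter-Glo luminescence.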

The target of data set [7] is 3CLpro (Severe acute respiratory syndrome coronavirus 2, UniProt P0DTD1). Description: SARS-CoV-2 3CLpro protease assay (duplex, SAMDI-MS). Format: biochemical. Also noted: For the duplex assay, 3CLpro and HRV3C was added. The following applies: 3CLpro, 30 mins preincubation, class symbols; read-out: SARS-Cov-2 IC50.
The subject of data set [8] is human beta-coronavirus OC43. Description: microbe, parasite or virus in culture. The following applies: Betacoronavirus 1, OC43, HeLa, 144 h, OC43 in HeLa cells, 6 days at 33° C., read-out: EC50. Format: cell-based.
Data set [9] deals with SARS-CoV-2-GHB-03021/2020. Briefly: microbe, parasite or virus in culture. It is filed as cell-based. The following applies: Severe acute respiratory syndrome coronavirus 2, Vero C1008, 96 h; read-out: VeroE6 + CP (EC50).

Molecules are shown by their SMILES. Like-named read-outs stand apart in the source and are kept apart here.

As a reminder, the IC50 is the point on the concentration scale where inhibition reaches its midpoint. A word on the EC50: it is the concentration needed to bring the measured effect to its halfway point. Take `CS(=O)(=O)Oc1cccc2[nH]c(C(=O)N3C[C@@H]4CCC[C@@H]4[C@H]3C(=O)N[C@@H](C[C@@H]3CCNC3=O)C(=O)CO)cc12` [Compound 155, 2-[(1S,3aR,6aS)-1-{[(2S)-4-hydroxy-3-oxo-1-[(3S)-2-oxopyrrolidin-3-yl]butan-2-yl]carbamoyl}-hexahydro-1H-cyclopenta[c]pyrrole-2-carbonyl]-1H-indol-4-yl methanesulfonate]: the CC50 in data set [1] and in data set [5] (numeric bounds) was above 50 µM each time. The values for the half-inhibitory concentration (IC50) in data set [2], in [4] (bound) and in [7] were at least 10 µM, above 10 µM and 0.02 to 0.2 µM, respectively. The concentration for a half-maximal effect (EC50) in data set [3] (numeric bounds) is above 50 µM; in data set [8] (class symbols) it was 1 to 10 µM; in data set [9], 10 to 100 µM. The molecule further registered a CC50 at 6 days in data set [6] above 10 µM.

Regarding `O=C1NCC[C@H]1C[C@H](NC(=O)[C@@H]1[C@H]2CCC[C@H]2CN1C(=O)c1cc2c(Cl)ccc(Cl)c2[nH]1)C(=O)CO` [Compound 156, (1S,3aR,6aS)-2-(4,7-dichloro-1H-indole-2-carbonyl)-N-[(2S)-4-hydroxy-3-oxo-1-[(3S)-2-oxopyrrolidin-3-yl]butan-2-yl]-hexahydro-1H-cyclopenta[c]pyrrole-1-carboxamide], the CC50 in data set [1] and in data set [5] (numeric bounds) was above 50 µM in each case. Moreover, the IC50 in [2] was at least 10 µM; in [4] (bound) it was above 10 µM; in data set [7] it was below 0.02 µM. The half-maximal effective concentration (EC50) was below 1 µM in data set [3] (class symbols), 0.1 to 1 µM in data set [8] (class symbols) and below 1 µM in data set [9]. The molecule further gave a CC50 at 6 days in [6] above 10 µM.

For `COc1cc(Cl)c(Cl)c2[nH]c(C(=O)N3C[C@@H]4CCC[C@@H]4[C@H]3C(=O)N[C@@H](C[C@@H]3CCNC3=O)C(=O)CO)cc12` [Compound 158, (1S,3aR,6aS)-2-(6,7-dichloro-4-methoxy-1H-indole-2-carbonyl)-N-[(2S)-4-hydroxy-3-oxo-1-[(3S)-2-oxopyrrolidin-3-yl]butan-2-yl]-hexahydro-1H-cyclopenta[c]pyrrole-1-carboxamide], the CC50 in data set [1] is above 10 µM; in data set [5] (numeric bounds) it was above 50 µM. The IC50 in data set [2] was at least 10 µM; in data set [4] (class symbols) it was 2 to 20 µM; in data set [7], below 0.02 µM. Further, the EC50 in data set [3] (class symbols) was below 1 µM; in data set [8] (class symbols), 0.1 to 1 µM; in data set [9], below 1 µM. In data set [6], this molecule showed a CC50 at 6 days above 10 µM.

On to `O=C1NCC[C@H]1C[C@H](NC(=O)[C@@H]1[C@H]2CCC[C@H]2CN1C(=O)c1cc2c([nH]1)CCS2(=O)=O)C(=O)CO` [Compound 159, (1S,3aR,6aS)-2-{1,1-dioxo-2H,3H,4H-1λ6-thieno[3,2-b]pyrrole-5-carbonyl}-N-[(2S)-4-hydroxy-3-oxo-1-[(3S)-2-oxopyrrolidin-3-yl]butan-2-yl]-hexahydro-1H-cyclopenta[c]pyrrole-1-carboxamide], for which the CC50 in data set [1] and in [5] (numeric bounds) was above 50 µM each time. Further, the IC50 was at least 10 µM in [2], above 10 µM in data set [4] (bound) and 0.02 to 0.2 µM in data set [7]. In addition, the EC50 in [3] (numeric bounds) is above 10 µM; in [8] (bound), above 10 µM; in data set [9], 10 to 100 µM. In addition, in [6], the CC50 at 6 days is above 10 µM.

`O=C1NCC[C@H]1C[C@H](NC(=O)[C@@H]1[C@H]2CCC[C@H]2CN1C(=O)c1cc2c(Cl)cc(Cl)c(F)c2[nH]1)C(=O)CO` [Compound 160, (1S,3aR,6aS)-2-(4,6-dichloro-7-fluoro-1H-indole-2-carbonyl)-N—((S)-4-hydroxy-3-oxo-1-((S)-2-oxopyrrolidin-3-yl)butan-2-yl)octahydrocyclopenta[c]pyrrole-1-carboxamide]: the results for the CC50 in data set [1] and in data set [5] (numeric bounds) were above 10 µM and above 50 µM, respectively. Also, the IC50 is at least 10 µM in [2], above 10 µM in [4] (bound) and below 0.02 µM in data set [7]. In addition, the values for the concentration giving a half-maximal response (EC50) in data set [3] (class symbols), in data set [8] (class symbols) and in data set [9] were below 1 µM, 0.1 to 1 µM and below 1 µM, respectively. Also, the CC50 at 6 days in data set [6] is above 10 µM.

As to `O=C1NCC[C@H]1C[C@H](NC(=O)[C@@H]1[C@H]2CCC[C@H]2CN1C(=O)c1cc2c(Cl)cc(C(F)(F)F)cc2[nH]1)C(=O)CO` [Compound 161, (1S,3aR,6aS)-2-[4-chloro-6-(trifluoromethyl)-1H-indole-2-carbonyl]-N-[(2S)-4-hydroxy-3-oxo-1-[(3S)-2-oxopyrrolidin-3-yl]butan-2-yl]-hexahydro-1H-cyclopenta[c]pyrrole-1-carboxamide], the figures for the CC50 in [1] and in data set [5] (numeric bounds) were above 10 µM and above 50 µM, respectively. In addition, the IC50 in data set [2] is at least 10 µM; in [4] (bound), above 10 µM; in data set [7] it was 0.02 to 0.2 µM. Besides, the results for the EC50 in data set [3] (class symbols), in data set [8] (class symbols) and in [9] were below 1 µM, below 0.1 µM and 1 to 10 µM, respectively. Besides, the CC50 at 6 days in data set [6] was above 10 µM.

Turning to `O=C1NCC[C@H]1C[C@H](NC(=O)[C@@H]1[C@H]2CCC[C@H]2CN1C(=O)c1cc2c(Cl)cc(F)c(Cl)c2[nH]1)C(=O)CO` [Compound 162, (1S,3aR,6aS)-2-(4,7-dichloro-6-fluoro-1H-indole-2-carbonyl)-N-[(2S)-4-hydroxy-3-oxo-1-[(3S)-2-oxopyrrolidin-3-yl]butan-2-yl]-hexahydro-1H-cyclopenta[c]pyrrole-1-carboxamide], the CC50 in data set [1] and in data set [5] (numeric bounds) was above 50 µM throughout. For the same molecule, the values for the IC50 in data set [2], in data set [4] (class symbols) and in data set [7] were at least 10 µM, 2 to 20 µM and below 0.02 µM, respectively. Besides, the concentration for a half-maximal effect (EC50) is below 1 µM in data set [3] (class symbols), below 0.1 µM in data set [8] (class symbols) and below 1 µM in data set [9]. In data set [6], the CC50 at 6 days was above 10 µM.

Regarding `COc1cc(C(F)(F)F)cc2[nH]c(C(=O)N3C[C@@H]4CCC[C@@H]4[C@H]3C(=O)N[C@@H](C[C@@H]3CCNC3=O)C(=O)CO)cc12` [Compound 163, (1S,3aR,6aS)—N—((S)-4-hydroxy-3-oxo-1-((S)-2-oxopyrrolidin-3-yl)butan-2-yl)-2-(4-methoxy-6-(trifluoromethyl)-1H-indole-2-carbonyl)octahydrocyclopenta[c]pyrrole-1-carboxamide], the CC50 in data set [1] and in [5] (numeric bounds) was above 50 µM each time. Further, the half-maximal inhibitory concentration (IC50) in [2] is at least 10 µM; in [4] (class symbols) it was 2 to 20 µM; in data set [7], below 0.02 µM. Moreover, the EC50 in data set [3] (class symbols) is 1 to 10 µM; in data set [8] (class symbols), below 0.1 µM; in data set [9], 1 to 10 µM. Besides, the CC50 at 6 days in [6] is above 10 µM.

Regarding `O=C(NC1CC1)C(=O)[C@H](C[C@@H]1CCNC1=O)NC(=O)[C@@H]1CC2(CCN1C(=O)c1cc3c(F)cccc3[nH]1)CC2` [Compound 164], the CC50 is 1 to 10 µM in [1] and above 50 µM in data set [5] (numeric bounds). In addition, the IC50 in data set [2] was 1 to 10 µM; in [4] (class symbols), 0.2 to 2 µM; in data set [7], below 0.02 µM. The figures for the EC50 in [3] (numeric bounds), in data set [8] (class symbols) and in data set [9] were above 10 µM, 1 to 10 µM and 10 to 100 µM, respectively. The molecule further returned a CC50 at 6 days in data set [6] above 10 µM.

With `O=C(NC1CC1)C(=O)[C@H](C[C@@H]1CCNC1=O)NC(=O)[C@@H]1CC2(CCN1C(=O)c1cc3ccccc3s1)CC2` [Compound 165], the CC50 in data set [1] is above 10 µM; in data set [5] (numeric bounds), above 50 µM. For the same molecule, the 50% inhibitory concentration (IC50) lay within 1 to 10 µM in data set [2], 0.2 to 2 µM in [4] (class symbols) and 0.02 to 0.2 µM in data set [7]. For the same molecule, the EC50 in data set [3] (class symbols) is below 1 µM; in [8] (class symbols) it was 0.1 to 1 µM; in data set [9], below 1 µM. Moreover, the CC50 at 6 days in data set [6] is above 10 µM.

Regarding `O=C(NCCOC1CCCC1)C(=O)[C@H](C[C@@H]1CCNC1=O)NC(=O)[C@@H]1[C@H]2CCC[C@H]2CN1C(=O)c1cc2c(Cl)cc(Cl)cc2[nH]1` [Compound 166], the CC50 in data set [1] was 1 to 10 µM; in data set [5] (class symbols), above 10 µM. The IC50 in data set [2] was 1 to 10 µM; in [4] (bound) it was above 10 µM; in [7] it was below 0.02 µM. The concentration giving a half-maximal response (EC50) was below 1 µM in [3] (class symbols), 0.1 to 1 µM in data set [8] (class symbols) and below 1 µM in data set [9]. The molecule also displayed a CC50 at 6 days in data set [6] above 10 µM.
